Like-named read-outs stand apart in the source and are kept apart here.
Experiments:
[1] = molecular target: T1, Human Androgen Receptor (Homo sapiens, UniProt P10275); assay type: binding
T1 construct: expressed in transfected cells; host or cells: HEK-293 cells stably transfected with the pCMVneo-hAR plasmid (G-418 selection); cytosol used
T1 sequence (P10275 1-920): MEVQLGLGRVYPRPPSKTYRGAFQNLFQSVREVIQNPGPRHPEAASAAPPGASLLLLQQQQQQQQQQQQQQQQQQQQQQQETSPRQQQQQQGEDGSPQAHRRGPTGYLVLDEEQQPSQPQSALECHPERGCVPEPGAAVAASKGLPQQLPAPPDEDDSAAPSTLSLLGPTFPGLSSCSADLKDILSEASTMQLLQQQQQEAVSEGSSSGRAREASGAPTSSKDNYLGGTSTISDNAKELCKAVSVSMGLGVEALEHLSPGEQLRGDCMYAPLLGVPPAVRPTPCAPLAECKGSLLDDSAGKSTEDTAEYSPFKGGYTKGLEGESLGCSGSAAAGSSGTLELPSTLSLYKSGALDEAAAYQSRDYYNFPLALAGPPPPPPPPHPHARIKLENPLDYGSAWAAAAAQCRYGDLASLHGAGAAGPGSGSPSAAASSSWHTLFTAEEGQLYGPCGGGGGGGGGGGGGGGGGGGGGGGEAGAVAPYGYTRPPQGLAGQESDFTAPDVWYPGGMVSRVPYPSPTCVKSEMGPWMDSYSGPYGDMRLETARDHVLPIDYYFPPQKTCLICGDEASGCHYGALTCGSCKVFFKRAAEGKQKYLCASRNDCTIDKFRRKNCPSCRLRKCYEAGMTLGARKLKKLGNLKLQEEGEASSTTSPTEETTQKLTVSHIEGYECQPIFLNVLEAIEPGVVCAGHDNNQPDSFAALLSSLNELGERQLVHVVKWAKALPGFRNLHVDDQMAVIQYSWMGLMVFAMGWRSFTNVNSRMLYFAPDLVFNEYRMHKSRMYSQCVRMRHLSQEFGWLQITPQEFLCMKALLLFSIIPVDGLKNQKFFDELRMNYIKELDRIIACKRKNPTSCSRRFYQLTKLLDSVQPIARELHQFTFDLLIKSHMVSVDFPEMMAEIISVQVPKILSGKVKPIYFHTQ

[2] = test system: Immature Rat CX + DHT; experiment: animal or person; assay type: in vivo; details: po; for change in vivo at 0.1 mg / change in vivo at 0.5 mg: Rattus norvegicus, 168 h
[3] = test system: Immature Rat CX; details: for In Vivo Agonist % Change vs CX (DHT = +100%) SV / In Vivo Agonist % Change vs CX (DHT = +100%) VP: po
[4] = test system: Shionogi mouse mammary carcinoma cells; experiment: cells; assay type: cell-based; details: for Ki: read-out: Shionogi cells Antiandrogenic activity Ki; for % of inh of DHT at 10^−7 M (Basal = 100%): 0.0003 µM
[5] = test system: Intact Rat; experiment: In vivo activity in intact rat (organ and muscle weight); details: rat, in vivo
[6] = read-out: In Vivo Antagonist % Change vs DHT (CX = −100%) SV
[7] = read-out: In Vivo Antagonist % Change vs DHT (CX = −100%) VP

Compound	Human Androgen Receptor Binding RBA (%) R1881 = 100% [1] [%]	In Vivo Agonist % Change vs CX (DHT = +100%) SV [3]	In Vivo Agonist % Change vs CX (DHT = +100%) VP [3]	Shionogi cells Antiandrogenic activity Ki OH-Flu/Ki compound [4]	Ki [4] [nM]	In Vivo Agonist Rat CX % change vs CX (DHT CONT = +100%) Bulbo [3]	In Vivo Agonist Rat CX % change vs CX (DHT CONT = +100%) SV [3]	In Vivo Agonist Rat CX % change vs CX (DHT CONT = +100%) VP [3]	% of stim of basal at 10^−7M (% over basal) [4]	% of stim of basal at 10^−7 M (DHT = 100%) [4]	% of inh of DHT at 10^−7 M (Basal = 100%) [4]	further results
C[C@]12CCC3c4ccc(C#N)cc4CCC3C1CC[C@@]2(O)Cc1ccc(-c2ccncc2)cc1 (stereo partly shown) [EM-4240]	110	+3 ± 1%	+12 ± 3%	1.4	24	–	–	–	–	–	–	change in vivo at 0.1 mg [2, 6]: -58 ± 2%; change in vivo at 0.5 mg [2, 6]: -85%; change in vivo at 0.1 mg [2, 7]: -46 ± 9%; change in vivo at 0.5 mg [2, 7]: -52%
C[C@]12CCC3c4ccc(C#N)c(F)c4CCC3C1CC[C@@]2(O)Cc1ccncc1 (stereo partly shown) [EM-5855]	8.2 ± 0.5	[1 ± 4] %	[2 ± 1] %	11 ± 1	1 ± 0.2	–	–	–	–	–	–	–
C[C@]12CCC3c4ccc(C#N)c(Cl)c4CCC3C1CCC[C@@]2(O)Cc1ccncc1 (stereo partly shown) [EM-5943]	26	+3 ± 4%	+2 ± 2%	–	2.1 ± 1.8	–	–	–	–	–	–	–
Cc1c(C#N)ccc2c1CCC1C2CC[C@@]2(C)C1CC[C@@]2(O)Cc1ccncc1 (stereo partly shown) [EM-5984]	29	0%	0%	4.0	1.9	–	–	–	–	–	–	–
C[C@]12CCC3c4ccc(C#N)c(Cl)c4CCC3C1CC[C@@]2(O)Cc1cc[n+]([O-])cc1F (stereo partly shown) [EM-5987]	6.8 ± 1.7	–	–	–	0.35 ± 0.15	–	–	–	–	–	–	change in vivo at 0.5 mg [2, 6]: -83%; change in vivo at 0.5 mg [2, 7]: -69%
C[C@]12CCC3c4ccc(C#N)c(Cl)c4CCC3C1CC[C@@]2(O)Cc1ccncc1F (stereo partly shown) [EM-5988]	97 ± 19	+10 ± 0%	+10 ± 0%	mixed	–	–	–	–	–	–	–	In Vivo Antagonist % Change vs DHT (CX = −100%) SV ([2]; rat, in vivo): [−83 ± 3] %; In Vivo Antagonist % Change vs DHT (CX = −100%) VP ([2]; rat, in vivo): [−71 ± 5] %; Shionogi cells Antiandrogenic activity Ki (nM) [4]: mixed
C[C@H]1C[C@@]2(C)C(CC[C@@]2(O)Cc2ccncc2)C2CCc3c(ccc(C#N)c3F)C21 (stereo partly shown) [EM-6582]	331	–	–	–	–	+71 ± 15%	+18 ± 3%	+37 ± 3%	+145 ± 78%	+41 ± 22%	+59 ± 22%	In Vivo Anti-A Rat CX + DHT % change vs DHT (CX CONT = −100%) SV ([2]; rat, in vivo): −60 ± 6%; In Vivo Anti-A Rat CX + DHT % change vs DHT (CX CONT = −100%) VP ([2]; rat, in vivo): −36 ± 1%; In Vivo Intact Rat % change vs Intact CONT (Intact CONT = +100%; CX CONT = 0%) Bulbo [5]: +197 ± 29%; In Vivo Intact Rat % change vs Intact CONT (Intact CONT = +100%; CX CONT = 0%) SZ [5]: +49 ± 5%; In Vivo Intact Rat % change vs Intact CONT (Intact CONT = +100%; CX CONT = 0%) VP [5]: +72 ± 6%
C[C@H]1C[C@@]2(C)C(CC[C@@]2(O)Cc2ccncc2F)C2CCc3c(ccc(C#N)c3F)C21 (stereo partly shown) [EM-6594]	292	–	–	–	–	+97 ± 19%	+13 ± 2%	+28 ± 7%	+224%	+63%	+37%	In Vivo Anti-A Rat CX + DHT % change vs DHT (CX CONT = −100%) SV ([2]; rat, in vivo): [−69 ± 4] %; In Vivo Anti-A Rat CX + DHT % change vs DHT (CX CONT = −100%) VP ([2]; rat, in vivo): [−56 ± 4] %
CC1CC2(C)C(CCC2(O)Cc2cc[n+]([O-])cc2F)C2CCc3c(ccc(C#N)c3F)C12 (stereo not shown) [EM-6595]	13	–	–	–	–	+97 ± 9%	+14 ± 1%	+28 ± 3%	+117 ± 11%	+43 ± 13%	−58 ± 13%	In Vivo Anti-A Rat CX + DHT % change vs DHT (CX CONT = −100%) SV ([2]; rat, in vivo): [−74 ± 3] %; In Vivo Anti-A Rat CX + DHT % change vs DHT (CX CONT = −100%) VP ([2]; rat, in vivo): [−56 ± 5] %; In Vivo Intact Rat % change vs Intact CONT (Intact CONT = +100%; CX CONT = 0%) Bulbo [5]: +162 ± 9%; In Vivo Intact Rat % change vs Intact CONT (Intact CONT = +100%; CX CONT = 0%) SZ [5]: +40 ± 3%; In Vivo Intact Rat % change vs Intact CONT (Intact CONT = +100%; CX CONT = 0%) VP [5]: +67 ± 10%
C[C@]12CCC3c4ccc(C#N)c(F)c4CCC3C1CC[C@@]2(O)Cc1ccncc1F (stereo partly shown) [EM-8455]	9.1	+1 ± 2%	0%	3.1	1.9	–	–	–	–	–	–	change in vivo at 0.1 mg [2, 6]: -85 ± 4%; change in vivo at 0.1 mg [2, 7]: -49 ± 3%
Cc1cnccc1C[C@]1(O)CCC2C3CCc4c(ccc(C#N)c4F)C3CC[C@@]21C (stereo partly shown) [EM-8504]	6.1	–	–	7.5	2.5	–	–	–	–	–	–	change in vivo at 0.1 mg [2, 6]: -75 ± 2%; change in vivo at 0.1 mg [2, 7]: -51 ± 13%
C[C@]12CCC3c4ccc(C#N)c(F)c4CCC3C1CC[C@@]2(O)Cc1ccncc1Cl (stereo partly shown) [EM-8632]	47	–	–	2.1	4.1	–	–	–	–	–	–	In Vivo Antagonist % Change vs DHT (CX = −100%) SV ([2]; rat, in vivo): −74 ± 3%; In Vivo Antagonist % Change vs DHT (CX = −100%) VP ([2]; rat, in vivo): −43 ± 6%
C[C@]12CCC3c4ccc(C#N)c(F)c4CCC3C1CC[C@@]2(O)Cc1cc[n+]([O-])cc1Cl (stereo partly shown) [EM-8633]	2.3	1%	0%	–	0.8	–	–	–	–	–	–	change in vivo at 0.1 mg [2, 6]: -83%; change in vivo at 0.1 mg [2, 7]: -42 ± 5%
CC[C@H]1C[C@@]2(C)C(CC[C@@]2(O)Cc2ccncc2)C2CCc3c(ccc(C#N)c3F)C21 (stereo partly shown) [EM-8986]	508	–	–	–	–	+149 ± 13%	+24 ± 3%	+35 ± 3%	+21%	+9%	+44%	In Vivo Anti-A Rat CX + DHT % change vs DHT (CX CONT = −100%) Bulbo ([2]; rat, in vivo): +74 ± 13%; In Vivo Anti-A Rat CX + DHT % change vs DHT (CX CONT = −100%) SV ([2]; rat, in vivo): −25 ± 4%; In Vivo Anti-A Rat CX + DHT % change vs DHT (CX CONT = −100%) VP ([2]; rat, in vivo): −24 ± 3%; In Vivo Intact Rat % change vs Intact CONT (Intact CONT = +100%; CX CONT = 0%) Bulbo [5]: +241 ± 27%; In Vivo Intact Rat % change vs Intact CONT (Intact CONT = +100%; CX CONT = 0%) SZ [5]: +98 ± 7%; In Vivo Intact Rat % change vs Intact CONT (Intact CONT = +100%; CX CONT = 0%) VP [5]: +76 ± 11%
CCC1CC2(C)C(CCC2(O)Cc2cc[n+]([O-])cc2)C2CCc3c(ccc(C#N)c3F)C12 (stereo not shown) [EM-8987]	26	–	–	–	–	+118 ± 10%	+25 ± 5%	+56 ± 11%	+73%	+74%	+35%	In Vivo Intact Rat % change vs Intact CONT (Intact CONT = +100%; CX CONT = 0%) Bulbo [5]: +292 ± 30%; In Vivo Intact Rat % change vs Intact CONT (Intact CONT = +100%; CX CONT = 0%) SZ [5]: +110 ± 13%; In Vivo Intact Rat % change vs Intact CONT (Intact CONT = +100%; CX CONT = 0%) VP [5]: +84 ± 4%
Cc1c(C#N)ccc2c1CCC1C2CCC2(C)C1CCCC2(O)Cc1cc[n+]([O-])cc1 (stereo not shown) [EM-9140]	1.4	0%	0%	11	1.2	–	–	–	–	–	–	–

Source: patent US9284345B2 (priority 2007, dated 2016)
